Measured values published in paper PMC7269505, “An Engineered Double Lipid II Binding Motifs-Containing Lantibiotic Displays Potent and Selective Antimicrobial Activity against Enterococcus faecium” (Antimicrobial Agents and Chemotherapy, 2020).
Several values for one entry are separate records, joined by “and”; a condition that tells them apart may be missing. Equal entries are not always repeated. Where two headings read alike, the source gives them in different places. No end group written: not given here.

Key:
[1] = system: E. faecium LMG16003; test: Antimicrobial activity of TL19 mutants (agar spot assay, Fig. 5d); format: cell-based, Enterococcus faecium; conditions: 1 nmol peptide, after removal of the leader peptide with NisP (Fig. 5d)
From the text: A highly conserved glutamate in HalA1 (Glu22) is essential for binding to its target lipid II ([12], [15], [16]). Mutating the glutamate residue in the CTLTXEC motif to alanine or glutamine completely abolished antibacterial activity ([15]). […] Therefore, either Glu34 in TL19 was mutated to Ala, Thr2 in TL19 was mutated to Asp, or both mutations were installed together in the same TL19 variant. […] NisC-catalyzed cyclization of the mutated peptides was investigated using CDAP treatment under reducing conditions followed by MS analysis.
FIG 5 Importance of both lipid II binding motifs for antimicrobial activity against E. faecium LMG16003. MALDI-TOF MS data of TL19 or TL19 mutants before (blue) and after (red) treated with CDAP. (a) TL19 (2Asp); (b) TL19 (34Ala); (c) TL19 (2Asp, 34Ala). (d) Antimicrobial activity for TL19 mutants against E. faecium LMG16003: 1, TL19 (1 nmol); 2, TL19 (2Asp) (1 nmol); 3, TL19 (34Ala) (1 nmol); 4, TL19 (2Asp, 34Ala) (1 nmol); 5, TL19 (2Asp) (1 nmol) plus TL19 (34Ala) (1 nmol); 6, negative control (buffer).

[2] = system: E. faecium; test: MIC comparison across E. faecium strains; format: cell-based, Enterococcus faecium; conditions: from MIC values; for higher antibacterial activity than nisin(1-22): antibiotic-resistant E. faecium
Method: (§1) MIC was evaluated by broth microdilution according to the standard guidelines ([45]). Briefly, the test medium was cation-adjusted Mueller-Hinton broth (MHB). Cell concentration was adjusted to approximately 5 × 10^5 cells per ml. After 20 h of incubation at 37°C, the MIC was defined as the lowest concentration of antibiotic with no visible growth. Each experiment was performed in triplicates.

[3] = system: Escherichia coli GSK 12; test: MIC by broth microdilution; format: cell-based; conditions: cation-adjusted MHB, approx. 5 × 10^5 cells per ml, 20 h, 37°C, triplicates
Method: as §1

[4] = system: Micrococcus flavus; test: Screening of antibacterial activity by spot-on-lawn assay; format: cell-based; conditions: TCA-precipitated peptide 5 μl plus 1 μl NisP, GM17 0.8% agar, 30°C overnight (Fig. S1)
Method: To assess the antibacterial activity of TCA-precipitated samples on a agar plate, an overnight culture of Micrococcus flavus was added to the GM17 containing 0.8% (wt/vol) agar (at 42°C), and then the mixture was poured onto the plates, 30 ml per plate. After that, 5 μl of the peptides together with 1 μl of NisP were added to the plates, and the plates were transferred to the 30°C incubator for incubation overnight.

[5] = system: E. faecium ATCC U0317 (ACRE); test: MIC by broth microdilution; format: cell-based, Enterococcus faecium; conditions: cation-adjusted MHB, approx. 5 × 10^5 cells per ml, 20 h, 37°C, triplicates
Method: as §1

[6] = system: S. aureus LMG10147; format: cell-based, Staphylococcus aureus
Method: as §1

[7] = system: E. faecium LMG16003 cells; test: Propidium iodide assay for membrane pore formation; format: cell-based, Enterococcus faecium; conditions: peptide 3 μM, propidium iodide 2.5 μg per ml, monitored for 3 h, excitation 533 nm, emission 617 nm
Method: The excitation and emission wavelengths on the fluorescence spectrometer were adjusted to 533 nm and 617 nm, respectively. E. faecium LMG16003 was grown to an OD600 of 0.6. To this cell suspension, propidium iodide (final concentration, 2.5 μg per ml) was added and incubated for 5 min. Peptides were added to a final concentration of 3 μM. Fluorescence was monitored for 3 h, with the peptide added after ∼60 s.

[8] = system: E. faecalis LMGV583; format: cell-based, Enterococcus faecalis
Method: as §1

[9] = system: E. faecalis LMG16216 (VRE); format: cell-based, Enterococcus faecalis
Method: as §1

[10] = system: E. faecalis LMG8222; format: cell-based, Enterococcus faecalis
Method: as §1

[11] = system: E. faecium (LMG16003; vancomycin-resistant strain); test: Time-kill assay; format: cell-based, Enterococcus faecium; conditions: MHB, 37°C, CFU counts, triplicates
Method: This assay was performed according to a previously described procedure ([29]). An overnight culture of cells (Enterococcus faecium LMG 16003; vancomycin-resistant strain) was diluted 50-fold in MHB and incubated at 37°C with aeration at 220 rpm. Bacteria were grown to an OD of 0.5, and then the cell concentration was adjusted to ≈5 × 10^5 cells per ml. Bacteria were then challenged with nisin (20 μM), nisin(1-22) (600 μM), or TL19 (10 μM) in culture tubes at 37°C and 220 rpm. (peptides at 10× MIC, a desirable concentration at the site of infection). Bacteria not treated with peptides were used as a negative control. At desired time points, 100-μl aliquots were taken, centrifuged at 8,000 × g for 2 min, and resuspended in 100 μl of MHB. Ten-fold serially diluted samples were plated on Mueller-Hinton agar (MHA) plates. After incubating at 37°C overnight, colonies were counted and CFU per milliliter was calculated. Each experiment was performed in triplicates.

[12] = system: E. faecium ATCC E1162 (ARE); format: cell-based, Enterococcus faecium
Method: as §1

[13] = system: E. faecium ATCC TX0082 (AEKVRE); format: cell-based, Enterococcus faecium
Method: as §1

[14] = system: E. faecium 6Tom18; format: cell-based, Enterococcus faecium
Method: as §1

[15] = system: E. faecium ATCC TX0133a04; format: cell-based, Enterococcus faecium
Method: as §1

[16] = system: E. faecium 4Tom19; format: cell-based, Enterococcus faecium
Method: as §1

[17] = system: E. faecium LMG16003 (VRE); format: cell-based, Enterococcus faecium
Method: as §1

[18] = system: E. faecium ATCC HF50105 (ETVRE); format: cell-based, Enterococcus faecium
Method: as §1

[19] = system: E. faecium LMG11423; format: cell-based, Enterococcus faecium
Method: as §1

[20] = system: E. faecium ATCC E1321 (AGRE); format: cell-based, Enterococcus faecium
Method: as §1

[21] = system: A. baumannii LMG01041; format: cell-based, Acinetobacter baumannii
Method: as §1

[22] = system: B. cereus ATCC 10987; format: cell-based, Bacillus cereus
Method: as §1

[23] = system: B. cereus ATCC 14579; format: cell-based, Bacillus cereus
Method: as §1

[24] = Complex formation with lipid II by thin-layer chromatography; format: binding; conditions: TLC, lipid II-lys or lipid II-dap (Fig. 4b1 and b2), 4 nmol, 30 min at 25°C
Method: Purified lipid II-lys or lipid II-dap (4 nmol) was incubated in chloroform-methanol-water (2:3:1), in the presence of increasing TL19 concentrations (TL19/lipid II molar ratios ranging from 0.3 to 2:1) in a total volume of 30 μl. After incubating for 30 min at 25°C, the mixture was analyzed by thin-layer chromatography using chloroform-methanol-water-ammonia (88:48:10:1), and the spots were visualized by iodine vapor ([20], [26]).

[25] = system: E. faecium LMG16003; test: Spot-on-lawn assay to measure peptide-lipid II complex formation; format: cell-based, Enterococcus faecium; conditions: peptide 1 nmol, either lipid II-lys or lipid II-dap
Method: An overnight cultured E. faecium LMG16003 was added to 0.8% MHA (wt/vol; temperature, 42°C) at a final concentration of 0.1% (vol/vol), and then the mixture was poured onto the plates (30 ml for each). Binding of peptide and lipid II was further evaluated by incubating purified lipid II with peptide in various molar ratios ranging from 0.5 to 2 with respect to the peptides (1 nmol). Subsequently, a spot-on-lawn assay was used to analyze the antimicrobial activity. After the lipid II solution drops with peptide had dried, the plates were transferred to the 37°C incubator for overnight incubation.

[26] = broth microdilution, cation-adjusted MHB, approx. 5 × 10^5 cells per ml, 20 h, 37°C, triplicates

IDSISLCTPGCKTGALMGCNMKTATCHYCTLTVECMPSCN [TL19 (2Asp), TL19 variant in which Thr2 was mutated to Asp]
antimicrobial activity relative to TL19 [1]: almost abolished the antimicrobial activity

ITSISLCTPGCKTGALMGCNMKTATCHYCTLTVACMPSCN [TL19 (34Ala)]
antimicrobial activity relative to TL19 [1]: severely reduced the antimicrobial activity

ITSISLCTPGCKTGALMGCNMKTATCHCTLTVECMPSCN (also: bicyclic or more (positions not given here)) [TL17, incompletely modified, not all rings formed]
higher antibacterial activity than nisin(1-22) [2]: 16 fold
MIC [3]: > 15 μM and > 58 μg/ml
antimicrobial activity against Micrococcus flavus [4]: potent antimicrobial activity
MIC [5]: 7.5 μM and 29 μg/ml

IDSISLCTPGCKTGALMGCNMKTATCHYCTLTVACMPSCN [TL19 (2Asp, 34Ala)]
antimicrobial activity relative to TL19 [1]: decreased or completely abolished the antimicrobial activity

C=C1NC(=O)[C@H]([C@@H](C)CC)NC(=O)[C@H](NC(=O)/C(=C/C)NC(=O)[C@@H](N)[C@@H](C)CC)CSC[C@@H](C(=O)N[C@H]2C(=O)N3CCC[C@H]3C(=O)NCC(=O)N[C@H](C(=O)N[C@@H](CCCCN)C(=O)N[C@H]3C(=O)NCC(=O)N[C@@H](C)C(=O)N[C@@H](CC(C)C)C(=O)N[C@@H](CCSC)C(=O)NCC(=O)N[C@H](C(=O)N[C@@H](CC(N)=O)C(=O)N[C@@H](CCSC)C(=O)N[C@@H](CCCCN)C(=O)O)CS[C@H]3C)CS[C@H]2C)NC(=O)[C@H](CC(C)C)NC1=O [Nisin(1-22), reference compound]
MIC ([6]; LMG10147, 20 h): 15 µM
MIC [6, 26]: 32 mg/L
MIC [3]: > 128 µg/mL
pore formation (propidium iodide fluorescence increase) [7]: neither TL19 nor nisin(1-22) caused any fluorescence increase
MIC ([8]; LMGV583, 20 h): > 60 µM
MIC [8, 26]: > 128 mg/L
MIC ([9]; LMG16216, 20 h): > 60 µM
MIC [9, 26]: > 128 mg/L
MIC ([10]; LMG8222, 20 h): > 60 µM
MIC [10, 26]: > 128 mg/L
effect on population of viable cells within 11 h postexposition ([11]; 10× MIC: nisin(1-22) 600 μM): did not reduce the population of viable cells
killing in 48 h ([11]; 10× MIC: nisin(1-22) 600 μM): only slight killing was observed
MIC ([12]; ATCC E1162, 20 h): > 60 µM
MIC [12, 26]: > 128 mg/L
MIC ([13]; ATCC TX0082, 20 h): 60 µM
MIC [13, 26]: 128 mg/L
MIC ([14]; 6Tom18, 20 h): 30 µM
MIC [14, 26]: 64 mg/L
MIC ([15]; ATCC TX0133, 20 h): 60 µM
MIC [15, 26]: 128 mg/L
MIC ([16]; 4Tom19, 20 h): 60 µM
MIC [16, 26]: 128 mg/L
MIC ([17]; LMG16003, 20 h): 60 µM
MIC [17, 26]: 128 mg/L
MIC ([18]; ATCC HF50105, 20 h): 30 µM
MIC [18, 26]: 64 mg/L
MIC ([19]; LMG11423, 20 h): 60 µM
MIC [19, 26]: 128 mg/L
MIC ([20]; ATCC E1321, 20 h): 60 µM
MIC [20, 26]: 128 mg/L
MIC ([21]; LMG01041, 20 h): > 60 µM
MIC [21, 26]: > 128 mg/L
MIC ([22]; ATCC 10987, 20 h): > 60 µM
MIC [22, 26]: > 128 mg/L
MIC ([23]; ATCC 14579, 20 h): 30 µM
MIC [23, 26]: 64 mg/L

ITSISLCTPGCKTGALMGCNMKTATCHYCTLTVECMPSCN (also: bicyclic or more (positions not given here)) [TL19, lantibiotic with seven thioether rings]
higher antibacterial activity than TL17 ([2]; E. faecium): 4 fold
higher antibacterial activity than nisin(1-22) [2]: 64 fold
lipid II migration at a low ratio (0.3:1) of TL19 to lipid II [24]: lipid II migration was significantly inhibited
MIC [3]: > 15 μM and > 60 μg/ml
pore formation (propidium iodide fluorescence increase) [7]: neither TL19 nor nisin(1-22) caused any fluorescence increase
time to complete killing ([11]; 10× MIC: nisin 20 μM, TL19 10 μM, ≈5 × 10^5 cells per ml): 24 h
antimicrobial activity against Micrococcus flavus [4]: potent antimicrobial activity
antibacterial activity upon addition of lipid II at a 1:1 (peptide/lipid II) ratio [25]: still showed potent antibacterial activity
MIC [5]: 1.9 μM and 7.6 μg/ml
